According to patent US20250136555A1 (HARBIN MEDISAN PHARMACEUTICAL CO., LTD., priority 2022, published 2025):

Assays:
PPARγ = molecular target: T1, PPARγ (Homo sapiens, UniProt P37231); experiment: GAL4 hybrid reporter gene method, PPARγ agonistic activity; assay type: cell-based; details: Cos-7 cells, Gal4-PPARγ (LBD); Rosiglitazone 1 μM = 100%; 16 h
T1 construct: expressed in transfected cells; host or cells: COS-7
T1 sequence (P37231 238-503 limits assumed): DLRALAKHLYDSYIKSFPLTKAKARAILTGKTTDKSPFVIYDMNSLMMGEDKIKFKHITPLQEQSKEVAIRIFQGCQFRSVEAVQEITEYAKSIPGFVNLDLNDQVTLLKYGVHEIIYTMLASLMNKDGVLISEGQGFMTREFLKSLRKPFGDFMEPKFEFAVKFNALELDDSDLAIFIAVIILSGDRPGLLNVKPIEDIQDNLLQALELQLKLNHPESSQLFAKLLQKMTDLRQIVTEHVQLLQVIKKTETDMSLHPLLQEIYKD
Protocol: Cos-7 cells (African green monkey kidney fibroblasts, commonly used tool cells) were cultured in a 10-cm cell culture dish with a DMEM complete medium containing 10% fetal bovine serum. When growing at a density of about 70%, the cells were ready for transfection. […] The working solution described above was then combined with 8 mL of the DMEM complete medium, and the mixture was added to the cell culture dish for cell transfection. After 4 h of transfection, the cells were digested, resuspended, and seeded into a 96-well plate at 25,000 cells/well. […] 10 μL of a reporter gene detection solution (purchased from Shanghai Beyotime Biological Tech. Co., Ltd.) was added. After the resulting solution was mixed and reacted, biological fluorescence was detected by using a multifunctional microplate reader, and corresponding half maximal effective concentration (EC50) values were calculated according to the detection values. […] Transfection working solutions for different nuclear receptors were prepared and added into COS-7 cells. The preparation method for the transfection working solution was as follows: the constructed pBIND-Gal4-PPARα (LBD) (or pBIND-Gal4-PPARδ (LBD) plasmid or pBIND-Gal4-PPARγ (LBD) plasmid or pBIND-Gal4-RARα (LBD) plasmid or pBIND-Gal4-RARγ (LBD) plasmid or pBIND-Gal4-RARβ (LBD) plasmid or pBIND-Gal4-RORα (LBD) plasmid or pBIND-Gal4-RORγ (LBD) plasmid or pBIND-Gal4-RORβ (LBD) plasmid or pBIND-Gal4-FXR (LBD) plasmid or pBIND-Gal4-RXRα.

[1] = test system: non-PPAR nuclear receptors; experiment: GAL4 hybrid reporter gene method, non-PPAR nuclear receptors (summary statement); assay type: cell-based; details: 1 μM
Protocol: Reporter gene plasmids for different nuclear receptors were constructed by referring to the method in the literature (Journal of Medicinal Chemistry 2022, 65, 2571-2592). Transfection working solutions for different nuclear receptors were prepared and added into COS-7 cells. The preparation method for the transfection working solution was as follows: the constructed pBIND-Gal4-PPARα (LBD) (or pBIND-Gal4-PPARδ (LBD) plasmid or pBIND-Gal4-PPARγ (LBD) plasmid or pBIND-Gal4-RARα (LBD) plasmid or pBIND-Gal4-RARγ (LBD) plasmid or pBIND-Gal4-RARβ (LBD) plasmid or pBIND-Gal4-RORα (LBD) plasmid or pBIND-Gal4-RORγ (LBD) plasmid or pBIND-Gal4-RORβ (LBD) plasmid or pBIND-Gal4-FXR (LBD) plasmid or pBIND-Gal4-RXRα. (LBD) plasmid or pBIND-Gal4-RXRγ (LBD) plasmid or pBIND-Gal4-RXRβ (LBD) plasmid or pBIND-Gal4-VDR (LBD) plasmid or pBIND-Gal4-LXRα (LBD) plasmid or pBIND-Gal4-LXRβ (LBD) plasmid or pBIND-Gal4-[…] (LBD) plasmid or pBIND-Gal4-PXR (LBD) plasmid or pBIND-Gal4-CAR (LBD) plasmid), 15 μg of pGL4.35-9×Gal4 UAS plasmid (purchased from Promega (Beijing) Biotech Co., Ltd.), and 60 μL of a transfection reagent ([…], purchased from Wuhan ABclonal Biotechnology Co., Ltd.) were added to 2 mL of Opti-MEM, the mixture was left to stand at room temperature for 15 min, and then the working solution was obtained.

[2] = test system: ANIT-induced cholestasis in mice; experiment: α-Naphthylisothiocyanate (ANIT)-induced cholestasis in mice; assay type: in vivo, C57 mice
Protocol: Animals: 25 male C57 mice, SPF grade, 8 weeks old, weighing about 20 g, purchased from Beijing Vital River. All animals maintained a 12-hour alternating circadian rhythm and were given ad libitum access to food and water. […] The mice were all fed food and water normally. The molding and administration processes were as follows: the mice in each of the administration groups were intragastrically administered the corresponding doses and types of compounds 6 h before modeling, and the mice in the control group and the model group were administered solvent controls with the same volume. When modeling, except for the control group, the mice in each group were intragastrically administered ANIT at a dose of 80 mg/kg, and the mice in the control group were administered the solvent control with the same volume. The administration was then continued for two days, once per day. Each group of mice was weighed every day, and their body weight, hair, feces, and activities were carefully observed and recorded. Forty-eight hours after giving ANIT for molding, blood was collected from the orbit, the mice were euthanized, and the liver was collected. The right lobular tissue of the liver was fixed with 4% paraformaldehyde and used for sectioning followed by HE staining. The remaining liver tissues were snap-frozen in liquid nitrogen for subsequent assays of other indexes. The whole blood was left to stand at room temperature for 2 h and centrifuged at 3000 rpm for 15 min, and serum was collected. Levels of aspartate aminotransferase (AST), alanine aminotransferase (ALT), alkaline phosphatase (ALP), total bilirubin (TBil), and total bile acid (TBA) in the serum were assayed. The fixed tissue was sent to Wuhan Servicebio Technology Co., Ltd. for preparing HE-stained sections. The test was performed using a tissue and blood alkaline phosphatase (AKP/ALP) activity assay kit (BC2145) purchased from Beijing Solarbio Science & Technology Co., Ltd. The liver tissue stored at −80° C. was taken and placed in liquid nitrogen, about 0.1 g of liver tissue was rapidly cut off, and 1 mL of an extracting solution was added. The mixture was ground thoroughly and centrifuged at 4° C. and 10000 rpm for 10 min, and the supernatant was collected for assay. The assay was performed by referring to the method in the product's instruction. Data were corrected according to protein concentrations of the samples, and the catalytic production of 1 μmol phenol per minute per milligram protein at 37° C. was defined as one enzymatic activity unit.

[3] = test system: hepatic fibrosis model mice; experiment: Tetrachloromethane-induced hepatic fibrosis in mice; assay type: in vivo, C57 mice
Protocol: Animals: 30 male C57 mice, SPF grade, 8 weeks old, weighing about 20 g, purchased from Beijing Vital River. All animals maintained a 12-hour alternating circadian rhythm and were given ad libitum access to food and water. […] The mice were all fed food and water normally, and the modeling lasted for 3 weeks. The mice in the model group and each of the administration groups were injected twice a week with a 25% CCl4 oil solution at a dose of 2 mL/kg, and the mice in the control group were injected with an oil solvent with the same volume. The administration was started at the same time of molding. […] After 3 weeks of administration, the mice were all fed food and water normally. Each group of mice was weighed every day, and their body weight, hair, feces, and activities were carefully observed and recorded. Twenty-four hours after the sixth injection of CCl4, the mice were dissected for sampling. Blood was collected from the orbit, the mice were euthanized, and the liver was collected. The right lobular tissue of the liver was fixed with 4% paraformaldehyde and used for sectioning followed by HE and sirius red staining. Part of liver tissues were divided into 3 parts and snap-frozen in liquid nitrogen for subsequent assays of other indexes. The pre-treated tissue was sent to Wuhan Servicebio Technology Co., Ltd. for preparing HE-stained sections and sirius red-stained sections. The liver tissue stored at −80° C. was taken and placed in liquid nitrogen, and about 200 mg of liver tissue was rapidly cut off. Hydroxyproline in the liver tissue was assayed according to the method in the product's instruction (Beijing Solarbio Science & Technology Co., Ltd., BC0255).

Cc1cc(CN2C(=O)CN(c3ccc(C(F)(F)F)cc3)C2=O)cc(C)c1OC(C)(C)C(=O)O [Compound 1, 2-(4-((2,5-Dioxo-3-(4-(trifluoromethyl)phenyl)imidazolidin-1-yl)methyl)-2,6-dimethylphenoxy)-2-methylpropionic Acid]
EC50 (PPARγ): 1.66 µM
agonistic effect on non-PPAR nuclear receptors [1]: no significant agonistic effect
intrahepatic cholestasis: liver morphology and serum color (FIG. 2) ([2]; ANIT 80 mg/kg, 0.03 and 0.1 mg/kg intragastric): effectively improve intrahepatic cholestasis
therapeutic effect on mouse cholestatic model (conclusion) ([2]; ANIT model): potent therapeutic effect
level of intrahepatic ALP (FIG. 4) ([2]; ANIT model, 0.03 and 0.1 mg/kg): significantly down-regulate
necrotic areas in the liver, HE staining (FIG. 5) ([2]; ANIT model, 0.03 and 0.1 mg/kg): dose-dependently reduce the number and area of necrotic areas
serum ALP (FIG. 3) ([2]; ANIT model, 0.03 and 0.1 mg/kg): a certain tendency to reduce
serum ALT level (FIG. 3) ([2]; ANIT model, 0.03 and 0.1 mg/kg): dose-dependently and significantly down-regulate
serum AST level (FIG. 3) ([2]; ANIT model, 0.03 and 0.1 mg/kg): dose-dependently and significantly down-regulate
serum TBA level (FIG. 3) ([2]; ANIT model, 0.03 and 0.1 mg/kg): dose-dependently and significantly down-regulate
serum TBil level (FIG. 3) ([2]; ANIT model, 0.03 and 0.1 mg/kg): dose-dependently and significantly down-regulate
ability to improve general appearance of the liver and serum color versus GFT505 ([2]; compound 1 0.03 mg/kg vs GFT505 30 mg/kg): comparable to the effect of GFT505 at 30 mg/kg
effects on reducing hepatic enzymes, total bilirubin and total bile acid versus GFT505 ([2]; compound 1 0.1 mg/kg vs GFT505 30 mg/kg): comparable to that of GFT505 at 30 mg/kg
effect on reducing intrahepatic ALP versus GFT505 ([2]; compound 1 at the two doses vs GFT505 30 mg/kg): slightly superior to that of GFT505 at 30 mg/kg
collagen deposition in liver, sirius red staining (FIG. 15) ([3]; CCl4 model): significantly reduce collagen deposition
effect on the hepatic fibrosis mouse model (conclusion) ([3]; CCl4 model): protective effect
inflammatory infiltration in liver, HE staining (FIG. 14) ([3]; CCl4 model): reduce inflammatory infiltration
hydroxyproline content in the liver (FIG. 13) ([3]; CCl4 model, 0.03 and 0.1 mg/kg intragastric daily, 3 weeks): dose-dependently reduce the hydroxyproline content
improving effect on collagen deposition versus GFT505 ([3]; compound 1 0.1 mg/kg vs GFT505 10 mg/kg): superior to that of GFT505 at 10 mg/kg
effect on hydroxyproline content versus GFT505 ([3]; compound 1 0.1 mg/kg vs GFT505 at 30 mg/kg (so in the source)): superior to that of GFT505 at 30 mg/kg
